Results published in PMC6823370, “A novel nucleoside rescue metabolic pathway may be responsible for therapeutic effect of orally administered cordycepin” (Scientific Reports, 2019).
Read-outs that look alike come from different tables or passages of the source.

What was measured:
[1] = Caco-2 permeability; type: in vitro ADME; conditions: human, Caco-2; read-out: Papp of 3′-deoxyinosine, A to B
Description: (§1) Caco-2 permeability assays were conducted following previously reported methods with 21-day maintenance on the Corning 24-well Transwell® (Fisher Scientific, Loughborough, UK)[48]. […] Both directions of apical-to-basolateral and basolateral-to-apical were tested. […] The experiments were conducted in triplicates.
(§2) Samples from Caco-2 permeability, in vitro determination of CordyTP formation and in vivo experiments were subjected to protein precipitation followed by LC-MS/MS analysis. To 50 µL of rat plasma sample, 150 µL of internal standard solution (1.67 µg/mL 2-chloroadenosine in methanol) was added. The samples were then vortex-mixed for 10 s and were centrifuged for 3 min at 17949 g. Supernatant (20 µL) was collected and diluted 10-fold with DDW before injection into the LC-MS/MS for analysis of cordycepin and 3′-deoxyinosine. For analysis of CordyTP, the supernatant was filtered using filter tubes mentioned above and injected without dilution. Tissue samples were homogenised using Bullet Blender Gold (Next Advance, Inc., Troy, NY) in methanol (1:3 w/v) and centrifuged for 3 min at 17949 g. The supernatant was filtered and injected for analysis of CordyTP or diluted 10-fold with DDW for analysis of cordycepin and 3′-deoxyinosine. The LC-MS/MS system was a API4000 QTrap (AB Sciex, Warrington, UK) equipped with HPLC setup of SCL10Avp controller, LC10ADvp pump and SILHTC autosampler (Shimadzu, Milton Keynes, UK). Three different methods were utilised for each compound and multiple reaction monitoring parameters of the MS/MS conditions are shown in Table 1. The HPLC conditions including stationary phases and specific mass spectrometry parameters are shown in Supplementary Information 2. The LC-MS/MS method for cordycepin was fully validated in terms of accuracy, precision, sensitivity, selectivity, linearity and sample storage stability in accordance with the Guidance for Industry, Bioanalytical Method Validation, (2018) published by the US FDA (refer to Supplementary Information 3 for validation procedures and results)[53].

[2] = system: Caco-2 cells; assay: Caco-2 permeability; type: in vitro ADME; conditions: cells treated with cordycepin in the absence of pentostatin
Description: as §1, §2

[3] = In vivo pharmacokinetics in rats after intravenous or oral cordycepin; parameters: species or system Sprague Dawley rats; conditions: male, Sprague Dawley; for C0: in vivo, read-out: C0 of 3′-deoxyinosine; for Vd: plasma, rat, read-out: Vss of 3′-deoxyinosine
Description: Protocols for the animal experiments in this study were reviewed and approved by the University of Nottingham Ethical Review Committee in accordance with the Animals [Scientific Procedures] Act 1986. Four male Sprague Dawley rats (Charles River Laboratories, UK) of 300–350 g body weight were used. The animals were housed in the Bio Support Unit, University of Nottingham at controlled temperature, 12 h light/dark cycle and free access to food and water. The animals were allowed to acclimatise for at least six days prior to any procedures.
Prior to pharmacokinetic studies, jugular vein cannulation surgery was performed under general anaesthesia (<3% isoflurane inhalation) for blood sampling or intravenous drug administration. Following two nights of recovery from surgery, the animals were intravenously or orally administered with the PBS-based formulation (5.5 mg/mL cordycepin) developed in a previously reported study. The dose was 8 or 20 mg/kg for intravenous administration and 8 or 80 mg/kg for oral administration. […] When whole blood was analysed, an aliquot was withdrawn immediately after mixing with the pretreated pentostatin. Otherwise, the mixture was centrifuged (3000 g, 10 min) to obtain plasma and samples were stored within the storage conditions tested prior to analysis.
as §2
Data are presented as mean ± standard deviation (SD). A two-tailed unpaired t-test was applied for assessment of statistical significance of differences between two groups. For three or more groups, the statistical significance was assessed by application of a one-way ANOVA followed by Tukey’s multiple comparisons test. A p-value lower than 0.05 was deemed statistically significant. Statistical analyses were conducted using GraphPad Prism version 7.01 (GraphPad Software, Inc., La Jolla, CA, USA). Pharmacokinetic parameters were obtained by non-compartmental analysis using Phoenix WinNonlin 6.3 software (Pharsight, Mountain View, CA, USA).
For calculation of pharmacokinetic parameters, the plasma concentration-time curve was plotted in a semi-log scale. From the plot, the elimination rate constant (ke) was calculated. Elimination half-life (t1/2) wasthen calculated using the following equation: […]

[4] = system: RAW264.7 cells; assay: Repression of inflammatory gene expression in LPS-stimulated RAW264.7 cells (qPCR); type: cell-based, mouse; conditions: for effect of pre-treatment on the inhibitory effect of cordycepin on inflammatory gene expression: LPS
Description: RAW 264.7 mouse macrophage cells were cultured in DMEM supplemented with 10% FBS. Prior to experiments, cells were washed with PBS and cells were maintained in DMEM with 0.5% FBS or 10% FBS for 24 h. LPS was added at 1 µg/mL, 1 h before compound treatment, when needed. When the cells were analysed for concentration levels of cordycepin, 3′-deoxyinosine and CordyTP, the cells were washed twice with PBS. The cells were then treated with methanol and mixed vigorously before the mixture was harvested. The mixture was filtered using filter tubes mentioned above and the filtrate was analysed by liquid chromatography coupled with tandem mass spectrometry (LC-MS/MS). For determination of relative mRNA levels, RNA was isolated from the lysates using an RNA isolation kit, following manufacturer’s protocol (Promega, Madison, WI, cat no. Z6012). RNA was reverse transcribed to cDNA using SuperScript™ III reverse transcriptase (Invitrogen, Carlsbad, CA). Quantitative polymerase chain reaction (qPCR), was performed with Qiagen Rotor-Gene Q qPCR machine (Qiagen, Hilden, Germany) using Promega SYBR Green GoTaq® qPCR master mix (Promega).
Figure 3 Repression effect on inflammatory gene expression. (a) NBTI or ITu treatment prior to cordycepin treatment suppresses effect of cordycepin. RAW264.7 cells were treated with 10 µM NBTI, 100 nM ITu or DMSO (Ctrl, control) 15 min prior to cordycepin treatment. The cells were stimulated with LPS 1 h after cordycepin treatment (mean ± SD, n = 3). **p < 0.01; ***p < 0.001 compared to DMSO treatment (labelled as Ctrl). (b) 3′-deoxyinosine exerts same repression effect as cordycepin, although to a lesser degree. RAW264.7 cells were treated with 20 µM cordycepin, 20 µM 3′-deoxyinosine (3DI) or DMSO (Ctrl, control) for 1 h prior to LPS stimulation (mean ± SD, n = 3). **p < 0.01; ***p < 0.001 compared to without compound treatment (labelled as LPS).

In the case of `OC[C@@H]1C[C@@H](O)[C@H](n2cnc3c(O)ncnc32)O1` [3′-deoxyinosine], the Papp A→B at 120 min, 200 µM [1] is reported as roughly 0.2 ×10⁻⁶ cm/s, the “permeation of 3′-deoxyinosine” value [2] is reported as “detected” and the C0 ([3]; rat plasma, intravenous cordycepin 8 mg/kg) is reported as 5730 ± 1630 ng/mL. It also gave a C0 ([3]; rat plasma, intravenous cordycepin 20 mg/kg) of 16300 ± 3870 ng/mL, a Vd ([3]; intravenous cordycepin 8 mg/kg) of 2.8 ± 0.3 L/kg and a Vd ([3]; intravenous cordycepin 20 mg/kg) of 3 ± 0.7 L/kg. For the same compound, the Cmax ([3]; rat plasma, oral cordycepin 8 mg/kg, read-out: Cmax of 3′-deoxyinosine) was 202 ± 98 ng/mL and the “effect on expression of inflammatory genes” value ([4]; 20 µM, 1 h prior to LPS stimulation) was “suppressed expression of inflammatory genes”.
In the case of `Nc1ncnc2c1c(I)cn2[C@@H]1O[C@H](CO)[C@@H](O)[C@H]1O` [ITu, 5-iodotubericidin, reference compound], the “effect of pre-treatment on the inhibitory effect of cordycepin on inflammatory gene expression” value ([4]; 100 nM ITu 15 min prior to cordycepin) is reported as “inhibit the inhibitory effect of cordycepin”.
With `O=[N+]([O-])c1ccc(CSc2ncnc3c2ncn3[C@@H]2O[C@H](CO)[C@@H](O)[C@H]2O)cc1` [NBTI, S-(4-nitrobenzyl)-6-thioinosine, reference compound] the “effect of pre-treatment on the inhibitory effect of cordycepin on inflammatory gene expression” value ([4]; 10 µM NBTI 15 min prior to cordycepin) was “inhibit the inhibitory effect of cordycepin”.
